Patent US6582968B2, “Paramagnetic and active analogue (EMP-2) of melanocyte stimulating hormone containing amino acid-type stable free radical” (Conselho Nacional de Desenvolvimento Cientifico e …, priority 1999, dated 2003)

Tested on: frog (Rana catesbeiana) skin
Assay: frog skin bioassay (skin darkening measured by reflectance)
Format: cell-based
Settings: for time to reversal of the maximum response after removal of the agonist: 10^−8 M peptide, removal followed by several Ringer's solution washings, FIG. 5; for agonist character and potency compared to native α-MSH (dose-response curves): frog skin pigmentation, decrease in skin reflectance, FIG. 4
Method: The biological activity assay of the EPM-2 was carried out comparatively to the native α-MSH. The classical method of measuring by reflectance the alteration in the frog skin pigmentation was assayed, see, Gen. Comp. Endocrinol. 55, 104 (1984). The potency of the synthesized hormone was determined through a dose-effect curve and long lasting activities were measured until a maximum of 3 h after the peptide removal from the incubation system carried out with successive washes. Briefly, the skin of the thigh and the dorsal portion of a frog were removed and cut in pieces of 2×2 cm which were placed among two rings of PVC and maintained for 1 h in Ringer's solution. After this period, the melanin granules aggregate in the melanocytes, and the skin becomes clearer. When α-MSH or its spin labeled analogue is added to the medium, there is a dispersion of the pigments in the cell, resulting in skin darkening. The change in the coloration is therefore monitored (decrease in the skin reflectance) in a photovolt reflectometer. The result is expressed as percentage in relation to the initial value.

Substance | time to reversal of the maximum response after removal of the agonist [min] | agonist character and potency compared to native α-MSH (dose-response curves) | agonist character and potency compared to native α-MSH (dose-response curves) (listed as labeled analogue) | natural biological activity maintained (relative to native α-MSH) [%]
Acetyl-Ser-Tyr-Ser-Met-Glu-His-Phe-Arg-Trp-Gly-Lys-Pro-Val-CONH2 (Ac-SYSMEHFRWGKPV-NH2) [α-MSH, native melanocyte stimulating hormone, comparator, reference compound] | 90 |  |  | 
Acetyl-Toac-Ser-Tyr-Ser-Met-Glu-His-Phe-Arg-Trp-Gly-Lys-Pro-Val-CONH2 [EPM-2] | 90 | fully maintaining the biological potency of the native α-MSH | full α-MSH agonist with equivalent potency | 100
